Results as given in patent US20150105252A1, “SUBSTITUTED PYRAZOLES AS HERBICIDES” (E I DU PONT DE NEMOURS AND COMPANY, priority 2013, published 2015).

What was measured:
wheat [1] = experiment: Test A preemergence; format: in vivo, Triticum aestivum; conditions: preemergence; for Wheat plant response rating (0 to 100 scale): visual injury approx. 10 days after treatment
Method in brief: (§1)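 Scoring was visual, on a scale where 100 means complete control and 0 means no effect, comparing treated with untreated plants around 10 days post-application. Compounds in surfactant-containing non-phytotoxic solvent were sprayed onto soil preemergence or onto one- to two-leaf seedlings (2–10 cm) postemergence.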

velvetleaf [2] = experiment: Test A preemergence; format: in vivo, Abutilon theophrasti; conditions: preemergence; for Velvetleaf plant response rating (0 to 100 scale): visual injury approx. 10 days after treatment
Method in brief: as §1

pigweed [3] = experiment: Test A postemergence; format: in vivo, Amaranthus retroflexus
Method in brief: as §1

crabgrass, large [4] = experiment: Test A preemergence; format: in vivo, Digitaria sanguinalis; conditions: preemergence; for Crabgrass, Large plant response rating (0 to 100 scale): visual injury approx. 10 days after treatment
Method in brief: as §1

morningglory [5] = experiment: Test A preemergence; format: in vivo, Ipomoea spp.; conditions: preemergence; for Morningglory plant response rating (0 to 100 scale): visual injury approx. 10 days after treatment
Method in brief: as §1

corn [6] = experiment: Test A postemergence; format: in vivo, Zea mays
Method in brief: as §1

corn [7] = experiment: Test A preemergence; format: in vivo, Zea mays; conditions: preemergence; for Corn plant response rating (0 to 100 scale): visual injury approx. 10 days after treatment
Method in brief: as §1

sedge, umbrella = experiment: Test B flood; format: in vivo, Cyperus difformis; conditions: 250 g ai/ha, visual rating on 0 to 100 scale (0 no effect, 100 complete control), 13 to 15 days
Method in brief: (§2)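 Flooded-pot test: compound dosed into 3 cm of standing water above soil when plants had two leaves. Visual control ratings (0–100) versus untreated plants after 13–15 d.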

morningglory [8] = experiment: Test A postemergence; format: in vivo, Ipomoea spp.
Method in brief: as §1

foxtail, giant [9] = experiment: Test A preemergence; format: in vivo, Setaria faberii; conditions: preemergence; for Foxtail, Giant plant response rating (0 to 100 scale): visual injury approx. 10 days after treatment
Method in brief: as §1

velvetleaf [10] = experiment: Test A postemergence; format: in vivo, Abutilon theophrasti
Method in brief: as §1

crabgrass, large [11] = experiment: Test A postemergence; format: in vivo, Digitaria sanguinalis
Method in brief: as §1

wheat [12] = experiment: Test A postemergence; format: in vivo, Triticum aestivum
Method in brief: as §1

barnyardgrass [13] = experiment: Test A preemergence; format: in vivo, Echinochloa crus-galli; conditions: preemergence; for Barnyardgrass plant response rating (0 to 100 scale, 0 is no effect, 100 is complete control): visual injury approx. 10 days after treatment
Method in brief: as §1

ducksalad = experiment: Test B flood; format: in vivo, Heteranthera limosa; conditions: 250 g ai/ha, visual rating on 0 to 100 scale (0 no effect, 100 complete control), 13 to 15 days
Method in brief: as §2

barnyardgrass [14] = experiment: Test B flood; format: in vivo, Echinochloa crus-galli; conditions: 250 g ai/ha, visual rating on 0 to 100 scale (0 no effect, 100 complete control), 13 to 15 days
Method in brief: as §2

pigweed [15] = experiment: Test A preemergence; format: in vivo, Amaranthus retroflexus; conditions: preemergence; for Pigweed plant response rating (0 to 100 scale): visual injury approx. 10 days after treatment
Method in brief: as §1

rice = experiment: Test B flood; format: in vivo, Oryza sativa; conditions: 250 g ai/ha, visual rating on 0 to 100 scale (0 no effect, 100 complete control), 13 to 15 days
Method in brief: as §2

barnyardgrass [16] = experiment: Test A postemergence; format: in vivo, Echinochloa crus-galli
Method in brief: as §1

foxtail, giant [17] = experiment: Test A postemergence; format: in vivo, Setaria faberii
Method in brief: as §1

[18] = 500 g ai/ha, visual injury after approx. 10 days, 0 to 100 scale (0 no effect, 100 complete control)
[19] = Postemergence, 125 g ai/ha, 0 to 100 scale, 0 no effect, 100 complete control
[20] = Postemergence, 500 g ai/ha, 0 to 100 scale (0 no effect, 100 complete control)
[21] = postemergence, 125 g ai/ha, about 10 days, visual rating on 0 to 100 scale (0 no effect, 100 complete control)
[22] = 125 g ai/ha, visual injury, 0 to 100 scale, approx. 10 days
[23] = Postemergence, 500 g ai/ha, visual rating after approx. 10 days, 0 to 100 scale (0 no effect, 100 complete control)

Compound: CCc1cc(C(=O)NCC(F)(F)F)nn1Cc1nc(C(F)(F)F)no1 [Compound 184]
- Wheat plant response rating (0 to 100 scale) (wheat [1]; 125 g ai/ha): 0
- Wheat plant response rating (wheat [1]; [18]): 20
- Velvetleaf plant response rating (0 to 100 scale) (velvetleaf [2]; 125 g ai/ha): 0
- Velvetleaf plant response rating (velvetleaf [2]; [18]): 50
- Pigweed plant response rating (pigweed [3]; [19]): 60
- Pigweed plant response rating (pigweed [3]; [20]): 90
- Crabgrass, Large plant response rating (0 to 100 scale) (crabgrass, large [4]; 125 g ai/ha): 50
- Crabgrass, Large plant response rating (crabgrass, large [4]; [18]): 100
- Morningglory plant response rating (0 to 100 scale) (morningglory [5]; 125 g ai/ha): 20
- Morningglory plant response rating (morningglory [5]; [18]): 100
- Corn plant response rating (corn [6]; [20]): 60
- Corn plant response rating (corn [6]; [21]): 0
- Corn plant response rating (0 to 100 scale) (corn [7]; 125 g ai/ha): 0
- Corn plant response rating (corn [7]; [18]): 30
- Plant response rating, Sedge, Umbrella (sedge, umbrella): 0
- Morningglory plant response rating (morningglory [8]; [19]): 30
- Morningglory plant response rating (morningglory [8]; [20]): 90
- Foxtail, Giant plant response rating (0 to 100 scale) (foxtail, giant [9]; 125 g ai/ha): 60
- Foxtail, Giant plant response rating (foxtail, giant [9]; [18]): 90
- Velvetleaf plant response rating (velvetleaf [10]; [19]): 50
- Velvetleaf plant response rating (velvetleaf [10]; [20]): 60
- Crabgrass, Large plant response rating (crabgrass, large [11]; [20]): 70
- Crabgrass, Large plant response rating (crabgrass, large [11]; [21]): 0
- Wheat plant response rating (wheat [12]; [19]): 0
- Wheat plant response rating (wheat [12]; [20]): 20
- Barnyardgrass plant response rating (0 to 100 scale, 0 is no effect, 100 is complete control) (barnyardgrass [13]; 125 g ai/ha): 0
- Barnyardgrass plant response rating (barnyardgrass [13]; [18]): 100
- Plant response rating, Ducksalad (ducksalad): 0
- Plant response rating, Barnyardgrass (barnyardgrass [14]): 0
- Pigweed plant response rating (0 to 100 scale) (pigweed [15]; 125 g ai/ha): 60
- Pigweed plant response rating (pigweed [15]; [18]): 100
- Plant response rating, Rice (rice): 0
- Barnyardgrass plant response rating (barnyardgrass [16]; [20]): 60
- Barnyardgrass plant response rating (barnyardgrass [16]; [21]): 0
- Foxtail, Giant plant response rating (foxtail, giant [17]; [20]): 40
- Foxtail, Giant plant response rating (foxtail, giant [17]; [21]): 0

Compound: CCCc1cc(-c2ccc(C(F)(F)F)cc2)nn1Cc1ccnc(C(F)(F)F)c1 [Compound 113]
- Wheat plant response rating (wheat [1]; [22]): 10
- Wheat plant response rating (wheat [1]; [18]): 30
- Velvetleaf plant response rating (velvetleaf [2]; [22]): 30
- Velvetleaf plant response rating (velvetleaf [2]; [18]): 40
- Pigweed plant response rating (pigweed [3]; [23]): 100
- Pigweed plant response rating (pigweed [3]; [21]): 60
- Crabgrass, Large plant response rating (crabgrass, large [4]; [22]): 80
- Crabgrass, Large plant response rating (crabgrass, large [4]; [18]): 100
- Morningglory plant response rating (morningglory [5]; [22]): 40
- Morningglory plant response rating (morningglory [5]; [18]): 70
- Corn plant response rating (corn [6]; [23]): 20
- Corn plant response rating (corn [6]; [21]): 20
- Corn plant response rating (corn [7]; [22]): 10
- Corn plant response rating (corn [7]; [18]): 10
- Plant response rating, Sedge, Umbrella (sedge, umbrella): 70
- Morningglory plant response rating (morningglory [8]; [23]): 100
- Morningglory plant response rating (morningglory [8]; [21]): 40
- Foxtail, Giant plant response rating (foxtail, giant [9]; [22]): 80
- Foxtail, Giant plant response rating (foxtail, giant [9]; [18]): 100
- Velvetleaf plant response rating (velvetleaf [10]; [23]): 100
- Velvetleaf plant response rating (velvetleaf [10]; [21]): 40
- Crabgrass, Large plant response rating (crabgrass, large [11]; [23]): 40
- Crabgrass, Large plant response rating (crabgrass, large [11]; [21]): 20
- Wheat plant response rating (wheat [12]; [23]): 20
- Wheat plant response rating (wheat [12]; [21]): 20
- Barnyardgrass plant response rating (barnyardgrass [13]; [22]): 20
- Barnyardgrass plant response rating (barnyardgrass [13]; [18]): 60
- Plant response rating, Ducksalad (ducksalad): 60
- Plant response rating, Barnyardgrass (barnyardgrass [14]): 40
- Pigweed plant response rating (pigweed [15]; [22]): 100
- Pigweed plant response rating (pigweed [15]; [18]): 100
- Plant response rating, Rice (rice): 30
- Barnyardgrass plant response rating (barnyardgrass [16]; [23]): 20
- Barnyardgrass plant response rating (barnyardgrass [16]; [21]): 10
- Foxtail, Giant plant response rating (foxtail, giant [17]; [23]): 40
- Foxtail, Giant plant response rating (foxtail, giant [17]; [21]): 20

Compound: CCc1cc(C(=O)NCC(F)(F)F)nn1Cc1cc(C(F)(F)C(F)(F)F)nn1C [Compound 227]
- Wheat plant response rating (0 to 100 scale) (wheat [1]; 125 g ai/ha): 10
- Velvetleaf plant response rating (0 to 100 scale) (velvetleaf [2]; 125 g ai/ha): 30
- Pigweed plant response rating (pigweed [3]; [19]): 100
- Pigweed plant response rating (pigweed [3]; [20]): 100
- Crabgrass, Large plant response rating (0 to 100 scale) (crabgrass, large [4]; 125 g ai/ha): 100
- Crabgrass, Large plant response rating (crabgrass, large [4]; [18]): 100
- Morningglory plant response rating (0 to 100 scale) (morningglory [5]; 125 g ai/ha): 10
- Corn plant response rating (corn [6]; [19]): 30
- Corn plant response rating (corn [6]; [20]): 70
- Corn plant response rating (0 to 100 scale) (corn [7]; 125 g ai/ha): 0
- Corn plant response rating (corn [7]; [18]): 50
- Plant response rating, Sedge, Umbrella (sedge, umbrella): 95
- Morningglory plant response rating (morningglory [8]; [19]): 70
- Morningglory plant response rating (morningglory [8]; [20]): 100
- Foxtail, Giant plant response rating (0 to 100 scale) (foxtail, giant [9]; 125 g ai/ha): 70
- Foxtail, Giant plant response rating (foxtail, giant [9]; [18]): 100
- Velvetleaf plant response rating (velvetleaf [10]; [19]): 40
- Velvetleaf plant response rating (velvetleaf [10]; [20]): 100
- Crabgrass, Large plant response rating (crabgrass, large [11]; [19]): 60
- Crabgrass, Large plant response rating (crabgrass, large [11]; [20]): 90
- Wheat plant response rating (wheat [12]; [19]): 20
- Wheat plant response rating (wheat [12]; [20]): 70
- Barnyardgrass plant response rating (0 to 100 scale, 0 is no effect, 100 is complete control) (barnyardgrass [13]; 125 g ai/ha): 40
- Barnyardgrass plant response rating (barnyardgrass [13]; [18]): 100
- Plant response rating, Ducksalad (ducksalad): 100
- Plant response rating, Barnyardgrass (barnyardgrass [14]): 80
- Pigweed plant response rating (0 to 100 scale) (pigweed [15]; 125 g ai/ha): 90
- Plant response rating, Rice (rice): 0
- Barnyardgrass plant response rating (barnyardgrass [16]; [19]): 40
- Barnyardgrass plant response rating (barnyardgrass [16]; [20]): 80
- Foxtail, Giant plant response rating (foxtail, giant [17]; [19]): 70
- Foxtail, Giant plant response rating (foxtail, giant [17]; [20]): 90
